Among the data in patent US10660334B2, “Fused bicyclic heterocycle derivatives as pesticides” (Bayer CropScience Aktiengesellschaft, priority 2016, dated 2020) are pest or weed control and chromatographic logP values, retold here.

In data set [1] the test system is Myzus persicae. As to the kind of experiment: Myzus persicae spray test. In kind it is in vivo. The conditions noted are these: foliar, 120 h, spray on Chinese cabbage leaf discs, after 5 days, read-out: efficacy (aphids killed); for pest or weed control at 20 g/ha: application rate 20 g/ha; for pest or weed control at 100 g/ha: application rate 100 g/ha. The procedure: Myzus persicae—Spray Test Solvent: 78 parts by weight of acetone • • 1.5 parts by weight of dimethylformamide Emulsifier: alkylaryl polyglycol ether To produce a suitable active ingredient formulation, 1 part by weight of active ingredient is dissolved with the specified parts by weight of solvent and made up to the desired concentration with water containing an emulsifier concentration of 1000 ppm. To produce further test concentrations, the formulation is diluted with emulsifier-containing water. Discs of Chinese cabbage leaves (Brassica pekinensis) infested by all stages of the green peach aphid (Myzus persicae) are sprayed with an active ingredient formulation of the desired concentration. After 5 days, the efficacy in % is determined. 100% means that all the aphids have been killed; 0% means that no aphids have been killed.

Data set [2] deals with Myzus persicae. Description: Myzus persicae oral test. To be noted: 120 h, application rate 4 ppm, after 5 days, read-out: efficacy (aphids killed). In kind it is in vivo. The procedure:
Myzus persicae—Oral Test Solvent: 100 parts by weight of acetone To produce a suitable active ingredient formulation, 1 part by weight of active ingredient is dissolved with the stated parts by weight of solvent and made up to the desired concentration with water. 50 μl of the active ingredient preparation are transferred into microtitre plates and made up to a final volume of 200 μl with 150 μl of IPL41 insect medium (33%+15% sugar). Subsequently, the plates are sealed with parafilm, which a mixed population of green peach aphids (Myzus persicae) within a second microtitre plate is able to puncture and imbibe the solution. After 5 days, the efficacy in % is determined. 100% means that all the aphids have been killed; 0% means that no aphids have been killed.

The nature of data set [3]: log P by HPLC on reversed-phase column (EEC Directive 79/831 Annex V.A8), acidic range. In kind it is physicochemical. The conditions noted are these: reversed-phase C18 HPLC column; HPLC reversed-phase C18, 55° C., pH 2.7, 0.1% aqueous formic acid and acetonitrile; read-out: log P (HCOOH). The procedure: The log P values are measured according to EEC Directive 79/831 Annex V.A8 by HPLC (high-performance liquid chromatography) on a reversed-phase column (C18). Temperature: 55° C. The LC-MS determination in the acidic range is effected at pH 2.7 with 0.1% aqueous formic acid and acetonitrile (containing 0.1% formic acid) as eluents; linear gradient from 10% acetonitrile to 95% acetonitrile. Called log P (HCOOH) in the table.

For `CCS(=O)(=O)c1c(-c2nc3cc(C(F)(F)F)nc(C(C)C)c3n2C)nc2n1CCCC2` [Example I-019], in data set [1], the pest or weed control at 20 g/ha turned out to be 90% and the pest or weed control at 100 g/ha amounted to 90%. In data set [2], the pest or weed control at 4 ppm amounted to 100%. In the case of `Cn1c(-c2nc3n(c2Br)CCC(C)(C)C3)nc2cc(C(F)(F)F)ncc21` [Example V-003, 2-(3-Bromo-7,7-dimethyl-6,8-dihydro-5H-imidazo[1,2-a]pyridin-2-yl)-3-methyl-6-(trifluoromethyl)imidazo[4,5-c]pyridine], the chromatographic logP in data set [3] is 3.03.

On to `CCS(=O)(=O)c1c(-c2nc3cc(C(F)(F)F)ncc3n2C)nc2n1CCC(C)(C)C2` [Example I-031, 2-(3-Ethysulfonyl-7,7-dimethyl-6,8-dihydro-5H-imidazo[1,2-a]pyridin-2-yl)-3-methyl-6-(trifluoromethyl)imidazo[4,5-c]pyridine], for which the chromatographic logP in data set [3] is 2.51.

Consider `CC1CCn2c(nc(-c3nc4cc(C(F)(F)C(F)(F)F)ncc4n3C)c2Br)C1` (stereo not drawn) [Example V-002, 2-(3-Bromo-7-methyl-5,6,7,8-tetrahydroimidazo[1,2-a]pyridin-2-yl)-3-methyl-6-(1,1,2,2,2-pentafluoroethyl)imidazo[4,5-c]pyridine], for which the chromatographic logP in data set [3] is 3.39. In the case of `Cn1c(-c2nc3n(c2Cl)CCCC3)nc2cc(C(F)(F)F)ncc21` [Example V-001, 2-(3-Chloro-5,6,7,8-tetrahydroimidazo[1,2-a]pyridin-2-yl)-3-methyl-6-(trifluoromethyl)imidazo[4,5-c]pyridine], in data set [3], the chromatographic logP was 2.26.

In the case of `CCS(=O)(=O)c1c(-c2nc3cc(C(F)(F)F)ncc3n2C)nc2n1CCCC2C(F)(F)F` (stereo not drawn) [Example I-004], the pest or weed control at 4 ppm in data set [2] was 100%. With `CCS(=O)(=O)c1c(-c2nc3cc(C(F)(F)F)ncc3n2C)nc2n1CCCC2C` (stereo not drawn) [Example I-043, 2-(3-Ethylsulfonyl-8-methyl-5,6,7,8-tetrahydroimidazo[1,2-a]pyridin-2-yl)-3-methyl-6-(trifluoromethyl)imidazo[4,5-c]pyridine], the chromatographic logP in data set [3] came to 2.31. Regarding `CC1(C)CCn2c(nc(C(=O)O)c2Br)C1` [III-002, 3-Bromo-7,7-dimethyl-6,8-dihydro-5H-imidazo[1,2-a]pyridine-2-carboxylic acid], the chromatographic logP in data set [3] worked out at 0.67. In the case of `Cn1c(-c2nc3n(c2S(C)(=O)=O)CCCC3)nc2cc(SC(F)(F)F)cnc21` [Example I-023], in data set [1], the pest or weed control at 20 g/ha stood at 90% and the pest or weed control at 100 g/ha is 90%. For the same compound, the pest or weed control at 4 ppm in data set [2] was determined as 100%.

On to `CCc1nc(C(F)(F)F)cc2nc(-c3nc4n(c3S(=O)(=O)CC)CCCC4)n(C)c12` [Example I-040, 4-Ethyl-2-(3-ethylsulfonyl-5,6,7,8-tetrahydroimidazo[1,2-a]pyridin-2-yl)-3-methyl-6-(trifluoromethyl)imidazo[4,5-c]pyridine], for which, in data set [3], the chromatographic logP came out at 2.51. `CCS(=O)(=O)c1c(-c2nc3cc(C(F)(F)F)ncc3n2C)nc2n1CCCC2F` (stereo not drawn) [Example I-026, 2-[3-(Ethylsulfonyl)-8-fluoro-5,6,7,8-tetrahydroimidazo[1,2-a]pyridin-2-yl]-3-methyl-6-(trifluoromethyl)-3H-imidazo[4,5-c]pyridine]: in data set [3], the chromatographic logP amounted to 2.11. Consider `CC1CCn2c(nc(C(=O)O)c2Br)C1` (stereo not drawn) [III-001, 3-Bromo-7-methyl-5,6,7,8-tetrahydroimidazo[1,2-a]pyridine-2-carboxylic acid], for which, in data set [3], the chromatographic logP amounted to 0.27. With `CCS(=O)(=O)c1c(-c2nc3cc([S+]([O-])C(F)(F)F)cnc3n2C)nc2n1CCCC2` (stereo not drawn) [Example I-022], the pest or weed control at 20 g/ha in data set [1] was 90%. Moreover, the pest or weed control at 4 ppm in data set [2] came to 100%.

On to `CCS(=O)(=O)c1c(-c2nc3cc(C(F)(F)F)ncc3n2C)nc2n1CCCC2(O)C(F)(F)F` (stereo not drawn) [Example I-006], for which the pest or weed control at 4 ppm in data set [2] came out at 100%. Consider `Cn1c(-c2nc3n(c2S(C)(=O)=O)CCCC3)nc2cc(C(F)(F)F)cnc21` [Example I-018], for which, in data set [1], the pest or weed control at 20 g/ha was found to be 90%. With `Cn1c(-c2nc3n(c2S(C)(=O)=O)CCCC3)nc2cc(C(F)(F)F)ccc21` [Example I-016], the pest or weed control at 4 ppm in data set [2] is 100%.
